Experimental data reported in ChEMBL document CHEMBL1201862, “PubChem BioAssay data set” (2004).
Where “and” joins values, the source holds several entries; their conditions need not be identical. Equal values may be shown once.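 Cells were grown in 96-well plates and exposed to each compound for 48 hours at five concentrations; endpoints were interpolated linearly between bracketing concentrations, or set to the highest concentration if not reached. Here, GI50 denotes the concentration required for 50% inhibition of growth.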 Calls of active or inactive are those of the source. Cut-off read from the data, not from the text of the source: active = GI50 up to about 1.1 µM and inactive = higher.

What was measured:
Assay in all cases: NCI-60 cell line screen, 48 h
[1] = test system: A498
[2] = test system: CAKI-1
[3] = test system: COLO 205
[4] = test system: HCC 2998
[5] = test system: HCT-116
[6] = test system: HCT-15
[7] = test system: MDA-MB-231
[8] = test system: MDA-MB-435
[9] = test system: NCI-H460
[10] = test system: NCI-H522
[11] = test system: OVCAR-3
[12] = test system: OVCAR-4
[13] = test system: SF-295
[14] = test system: SF-539
[15] = test system: SK-MEL-28
[16] = test system: SK-OV-3
[17] = test system: SW-620
[18] = test system: UACC-257
[19] = test system: K562
[20] = test system: MOLT-4

SMILES | GI50 [1] | GI50 [2] | GI50 [3] | GI50 [4] | GI50 [5] | GI50 [6] [µM] | GI50 [7] | GI50 [8] | GI50 [9] | GI50 [10] | GI50 [11] | GI50 [12] | GI50 [13] | GI50 [14] | GI50 [15] | GI50 [16] | GI50 [17] | GI50 [18] | GI50 [19] | GI50 [20]
N#Cc1c(-c2ccccc2)c(/C=N/c2ccc(Cl)cc2)c(=O)n2c1[nH]c1ccccc12 | > 100 µM (inactive) | 20.1 µM (inactive) | 83 µM (inactive) | > 100 µM (inactive) | 0.424 µM (active) | > 100 | > 100 µM (inactive) | > 100 µM (inactive) | > 100 µM (inactive) | 61.2 µM (inactive) | 80.9 µM (inactive) | > 100 µM (inactive) | 50.5 µM (inactive) | > 100 µM (inactive) | > 100 µM (inactive) | > 100 µM (inactive) | > 100 µM (inactive) | > 100 µM (inactive) |  | 
c1ccc2nn(C3CCCO3)nc2c1 (centres undefined) | > 100 µM (inactive) | > 100 µM (inactive) | > 100 µM (inactive) | > 100 µM (inactive) | > 100 µM (inactive) | > 100 | > 100 µM (inactive) | > 100 µM (inactive) | > 100 µM (inactive) | > 100 µM (inactive) | > 100 µM (inactive) | > 100 µM (inactive) | > 100 µM (inactive) | > 100 µM (inactive) |  | > 100 µM (inactive) |  | > 100 µM (inactive) | > 100 µM (inactive) | > 100 µM (inactive)
CCN1CC2=C(NC(=S)NC2c2ccc(Cl)cc2)/C(=C/c2ccc(Cl)cc2)C1 (centres undefined) | 23 µM (inactive) | 35.7 µM (inactive) | > 100 µM (inactive) | 53.8 µM (inactive) | 62.5 µM (inactive) | 54.7 | > 100 µM (inactive) | 61.9 µM (inactive) | 18.5 µM (inactive) | > 100 µM (inactive) | 61.5 µM (inactive) | > 100 µM (inactive) | 67.1 µM (inactive) |  | 24.4 µM (inactive) | > 100 µM (inactive) | 67.1 µM (inactive) | > 100 µM (inactive) | 19.5 µM (inactive) | 10.5 µM (inactive)
CSC1=C(C(=O)Nc2ccc(Cl)cc2)C(N)=NC1=O | > 100 µM (inactive) | 29 µM (inactive) | > 100 µM (inactive) | > 100 µM (inactive) | > 100 µM (inactive) | > 100 | > 100 µM (inactive) | > 100 µM (inactive) | > 100 µM (inactive) | > 100 µM (inactive) | > 100 µM (inactive) | > 100 µM (inactive) |  | > 100 µM (inactive) | > 100 µM (inactive) | > 100 µM (inactive) | > 100 µM (inactive) | > 100 µM (inactive) | > 100 µM (inactive) | > 100 µM (inactive)
O=C(c1ccncc1)C1C(=O)c2ccccc2C1C1(O)c2ccccc2CC1C(O)c1ccncc1 (centres undefined) | 49.1 µM (inactive) | 34.7 µM (inactive) | 47.6 µM (inactive) | 57.3 µM (inactive) | 28.2 µM (inactive) | 41.3 | 39.2 µM (inactive) | 16.9 µM (inactive) | 34.2 µM (inactive) | 31.3 µM (inactive) |  | 27.9 µM (inactive) | 31.4 µM (inactive) | 77.6 µM (inactive) | 89.3 µM (inactive) | 7.96 µM (inactive) | 71.8 µM (inactive) | 52.7 µM (inactive) | 42 µM (inactive) | 15.1 µM (inactive)
CC(C)=C1C(=O)C[C@]2(C)C/C=C(\C)CC/C=C(\C)CC[C@@H]12 | 20.8 µM (inactive) | 7.96 µM (inactive) | 8.51 µM (inactive) | 7.53 µM (inactive) | 8.32 µM (inactive) | 8.28 | 7.89 µM (inactive) | 9.53 µM (inactive) |  | 6.97 µM (inactive) | 8.53 µM (inactive) | 15.3 µM (inactive) | 11.3 µM (inactive) | 8.57 µM (inactive) | 8.22 µM (inactive) | 18.9 µM (inactive) | 9.31 µM (inactive) | 11.1 µM (inactive) | 6.65 µM (inactive) | 8.61 µM (inactive)
Cc1cc2c(cc1N)C(C)C1(CCC(=O)N2Cc2ccccc2)OCCO1 (centres undefined) | > 100 µM (inactive) | > 100 µM (inactive) |  | > 100 µM (inactive) | > 100 µM (inactive) | > 100 | > 100 µM (inactive) | > 100 µM (inactive) | > 100 µM (inactive) | > 100 µM (inactive) | > 100 µM (inactive) | > 100 µM (inactive) | > 100 µM (inactive) | > 100 µM (inactive) | > 100 µM (inactive) | > 100 µM (inactive) | > 100 µM (inactive) | > 100 µM (inactive) |  | > 100 µM (inactive)
COC1C(OC(C)=O)CC(=O)OC(C)C/C=C/C=C\C(O)C(C)CC(CC=O)C1OC1OC(C)C(OC2CC(C)(O)C(OC(=O)CC(C)C)C(C)O2)C(N(C)C)C1O (centres undefined) | > 100 µM (inactive) and 70.3 µM (inactive) | > 100 µM (inactive) | > 100 µM (inactive) and 69.7 µM (inactive) | > 100 µM (inactive) | > 100 µM (inactive) |  | > 100 µM (inactive) | 51.1 µM (inactive) | > 100 µM (inactive) | > 100 µM (inactive) | > 100 µM (inactive) and 96.8 µM (inactive) | > 100 µM (inactive) and 68.5 µM (inactive) | > 100 µM (inactive) | > 100 µM (inactive) | > 100 µM (inactive) | > 100 µM (inactive) | > 100 µM (inactive) | 66.5 µM (inactive) and 70.1 µM (inactive) | 29.5 µM (inactive) and 51.2 µM (inactive) | 
CCOC(=O)Cc1cc(=O)[nH]c(-n2[nH]c(C)c(CCO)c2=O)n1 | > 100 µM (inactive) | > 100 µM (inactive) | > 100 µM (inactive) | > 100 µM (inactive) | > 100 µM (inactive) | > 100 | > 100 µM (inactive) | > 100 µM (inactive) | > 100 µM (inactive) | > 100 µM (inactive) | > 100 µM (inactive) | > 100 µM (inactive) | > 100 µM (inactive) | > 100 µM (inactive) | > 100 µM (inactive) | > 100 µM (inactive) | > 100 µM (inactive) | > 100 µM (inactive) | > 100 µM (inactive) | 
CCOC(=O)C1=C(C)C2C=C(c3cccs3)CC(c3ccc(Cl)cc3)=C2OC1=O (centres undefined) | 83.2 µM (inactive) | 57.8 µM (inactive) | 40.9 µM (inactive) | 22.5 µM (inactive) | 7.43 µM (inactive) | 16.8 | 92.3 µM (inactive) | 42.4 µM (inactive) | 64.4 µM (inactive) | 19.2 µM (inactive) | 24.7 µM (inactive) | 19.7 µM (inactive) | 60.4 µM (inactive) |  | 94.4 µM (inactive) | > 100 µM (inactive) | 65 µM (inactive) | 17.7 µM (inactive) | 5.05 µM (inactive) | 6.07 µM (inactive)
CC(=O)O[C@H]1C(=O)[C@@]2(C)[C@H]([C@H](OC(=O)c3ccccc3)[C@]3(O)C[C@H](OC(=O)[C@H](O)[C@@H](NC(=O)c4ccccc4)c4ccccc4)C(C)=C1C3(C)C)[C@]1(OC(C)=O)CO[C@@H]1C[C@@H]2O [PACLITAXEL] | 0.107 µM (active) | 0.203 µM (active) | 0.00303 µM (active) | 0.00341 µM (active) | 0.00268 µM (active) |  | 0.054 µM (active) | 0.00395 µM (active) | 0.00296 µM (active) | 0.00464 µM (active) |  | 0.486 µM (active) |  | 0.00373 µM (active) |  | 0.00881 µM (active) | 0.00326 µM (active) |  |  | 
